The source made the active and inactive calls. The rule behind the calls is not given here.
Key:
[1] = molecular target: T1, Receptor tyrosine-protein kinase erbB-2 (Homo sapiens, UniProt P04626); experiment: Inhibition of HER2 autophosphorylation at Y1248 in human MCF7 cells at 10 uM after 2 hrs by Western blotting; assay type: cell-based
[2] = molecular target: T1, Receptor tyrosine-protein kinase erbB-2; experiment: Inhibition of HER2 autophosphorylation at Y1248 in human MCF7 cells expressing pcDNA3 at 10 uM after 2 hrs by Western blotting; assay type: cell-based
[3] = test system: MCF7; experiment: Cytotoxicity against human MCF7 cells expressing pcDNA3 assessed as reduction of cell viability at 10 uM after 48 hrs CellTiter-Glo assay; assay type: functional
[4] = test system: MCF7; experiment: Cytotoxicity against human MCF7 cells expressing HER2 assessed as reduction of cell viability at 10 uM after 48 hrs CellTiter-Glo assay; assay type: functional
[5] = test system: MCF7; experiment: Inhibition of HER2 delta16 mutant autophosphorylation at Y1248 in human MCF7 cells at 10 uM after 2 hrs by Western blotting; assay type: cell-based
[6] = test system: MCF7; experiment: Cytotoxicity against human MCF7 cells expressing HER2 assessed as reduction of cell viability after 48 hrs CellTiter-Glo assay; assay type: functional, cell-based; settings: MCF7, 48 h
[7] = test system: MCF7; experiment: Cytotoxicity against human MCF7 cells expressing HER2delta16 assessed as reduction of cell viability at 10 uM after 48 hrs CellTiter-Glo assay; assay type: functional
[8] = test system: MCF7; experiment: Cytotoxicity against human MCF7 cells expressing HER2delta16 assessed as reduction of cell viability after 48 hrs CellTiter-Glo assay; assay type: functional, cell-based; settings: MCF7, 48 h
[9] = test system: MCF7; experiment: Cytotoxicity against human MCF7 cells expressing pcDNA3 assessed as reduction of cell viability after 48 hrs CellTiter-Glo assay; assay type: functional, cell-based; settings: MCF7, 48 h
[10] = molecular target: T1, Receptor tyrosine-protein kinase erbB-2; experiment: Inhibition of HER2 (unknown origin) by ADP-Glo assay

T1 sequence (P04626 whole entry): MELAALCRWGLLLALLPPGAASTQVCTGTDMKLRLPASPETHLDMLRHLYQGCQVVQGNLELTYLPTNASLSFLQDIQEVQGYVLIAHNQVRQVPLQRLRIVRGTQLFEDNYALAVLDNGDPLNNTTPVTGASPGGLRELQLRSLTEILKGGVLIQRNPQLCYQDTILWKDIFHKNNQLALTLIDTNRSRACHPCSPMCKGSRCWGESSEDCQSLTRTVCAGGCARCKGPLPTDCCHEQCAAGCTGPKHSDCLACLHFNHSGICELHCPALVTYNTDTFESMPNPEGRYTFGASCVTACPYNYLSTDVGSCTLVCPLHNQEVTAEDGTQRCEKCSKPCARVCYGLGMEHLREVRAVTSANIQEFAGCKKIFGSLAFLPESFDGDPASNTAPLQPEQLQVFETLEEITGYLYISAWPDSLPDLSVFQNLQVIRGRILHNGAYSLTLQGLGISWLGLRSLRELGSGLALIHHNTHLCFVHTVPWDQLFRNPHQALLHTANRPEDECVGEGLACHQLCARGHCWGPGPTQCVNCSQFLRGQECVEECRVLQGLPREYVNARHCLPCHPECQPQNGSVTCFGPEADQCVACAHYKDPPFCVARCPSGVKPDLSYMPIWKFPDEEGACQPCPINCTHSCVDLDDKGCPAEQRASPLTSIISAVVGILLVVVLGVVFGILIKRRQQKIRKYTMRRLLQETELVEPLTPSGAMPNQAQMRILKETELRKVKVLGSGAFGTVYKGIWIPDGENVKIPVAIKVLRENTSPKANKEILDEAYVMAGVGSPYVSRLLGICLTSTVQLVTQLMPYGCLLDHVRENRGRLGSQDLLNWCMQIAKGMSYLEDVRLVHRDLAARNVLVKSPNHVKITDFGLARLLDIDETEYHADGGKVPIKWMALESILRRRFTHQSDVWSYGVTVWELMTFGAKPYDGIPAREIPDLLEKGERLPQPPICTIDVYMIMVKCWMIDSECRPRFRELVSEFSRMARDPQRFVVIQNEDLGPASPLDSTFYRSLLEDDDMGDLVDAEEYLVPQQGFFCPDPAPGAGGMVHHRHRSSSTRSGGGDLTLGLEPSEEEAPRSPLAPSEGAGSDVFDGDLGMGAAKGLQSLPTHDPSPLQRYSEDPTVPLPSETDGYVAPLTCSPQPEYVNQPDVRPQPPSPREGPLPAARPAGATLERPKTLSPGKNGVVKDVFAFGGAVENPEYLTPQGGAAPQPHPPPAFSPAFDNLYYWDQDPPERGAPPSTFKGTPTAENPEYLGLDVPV

Row | SMILES | inhibition [1] | inhibition [2] | Activity [3] [%] | Activity [4] [%] | inhibition [5] | IC50 [6] [µM] | Activity [7] [%] | IC50 [8] [µM] | IC50 [9] [µM] | IC50 [10] [µM]
1 | CS(=O)(=O)CCNCc1ccc(-c2ccc3ncnc(Nc4ccc(OCc5cccc(F)c5)c(Cl)c4)c3c2)o1 [LAPATINIB] | Active | Active | <50 | <50 | Active | 15.8 | <50 | 19.2 | 15.7 | 
2 | O=C1C(CO)=C(CO)C(=O)c2c(O)ccc(O)c21 | Active | Active | >90 | >90 | Active | 0.82 | >90 | 0.93 | 0.5 | 11.4
3 | CC(=O)Oc1ccc(O)c2c1C(=O)C=CC2=O | inactive | inactive |  |  | inactive |  |  |  |  | 
4 | CC1=CC(=O)c2c(O)cccc2C1=O [PLUMBAGIN] | Active | Active | >90 | >90 | Active | 2.84 | >90 | 5.1 | 3.35 | 30.8
5 | O=C1C2=C(C(=O)c3c(O)ccc(O)c31)[C@@H](O)[C@@H](O)[C@@H](O)C2 | Active | Active | >90 | >90 | Active | 0.87 | >90 | 0.91 | 0.47 | 10.8

Reference: ChEMBL document CHEMBL3098113, “Identification of quinones as HER2 inhibitors for the treatment of trastuzumab resistant breast cancer” (Bioorg Med Chem Lett, 2014)
